Results: DBAASP
≈ marks a conversion by molar mass, not a printed value.

Legend:
Assay in all cases: ≥ marks a high value that may be exact or a test limit, other limits are often not marked, values filed in µg/mL are converted to µM
[1] = tested on: Actinomyces naeslundii ATCC 12104
[2] = tested on: Actinomyces viscosus ATCC 15987
[3] = tested on: Lacticaseibacillus casei ATCC 393
[4] = tested on: Lactobacillus acidophilus ATCC 14931
[5] = tested on: Limosilactobacillus fermentum ATCC 9338
[6] = tested on: Streptococcus gordonii DL1
[7] = tested on: Streptococcus mutans UA159
[8] = tested on: Streptococcus sanguinis ATCC 10556
[9] = tested on: Escherichia coli DH5alpha
Staphylococcus xylosus = tested on: Staphylococcus xylosus
[10] = tested on: Escherichia coli ATCC 2592
[11] = tested on: Micrococcus luteus ATCC 9341
[12] = tested on: Pseudomonas aeruginosa ATCC 9027
[13] = tested on: Staphylococcus aureus 1550
[14] = tested on: Staphylococcus aureus ATCC 6538
[15] = tested on: Aspergillus awamori KCTC 6915
[16] = tested on: Aspergillus flavus KCTC 6905
[17] = tested on: Aspergillus fumigatus KCTC 6145
[18] = tested on: Aspergillus parasiticus KCTC 6598
[19] = tested on: Bacillus subtilis KCTC 1998
[20] = tested on: Candida albicans KCTC 7270
[21] = tested on: Escherichia coli ATCC 25922
[22] = tested on: Listeria monocytogenes KCTC 3710
[23] = tested on: Proteus vulgaris KCTC 2433
[24] = tested on: Pseudomonas aeruginosa ATCC 15692
[25] = tested on: Salmonella typhimurium KCTC 1926
[26] = tested on: Staphylococcus aureus ATCC 25923
[27] = tested on: Staphylococcus epidermidis ATCC 12228
[28] = tested on: Trichosporon beigelii KCTC 7707
[29] = tested on: Acinetobacter baumannii ATCC 19606
[30] = tested on: Candida albicans ATCC 90028
[31] = tested on: Candida parapsilosis ATCC 22019
[32] = tested on: Enterococcus faecalis ATCC 29212
Escherichia coli ML-35p = tested on: Escherichia coli ML-35p
[33] = tested on: Klebsiella pneumoniae ATCC 13883
Listeria ivanovii = tested on: Listeria ivanovii
[34] = tested on: Pseudomonas aeruginosa ATCC 27853
Saccharomyces cerevisiae = tested on: Saccharomyces cerevisiae
[35] = tested on: Salmonella enterica subsp. enterica serovar Enteritidis
[36] = tested on: Staphylococcus aureus ST1065
[37] = tested on: Streptococcus pyogenes ATCC 19615
[38] = tested on: Candida albicans ATCC 2002
[39] = tested on: Pseudomonas aeruginosa CMCCB 10104
[40] = tested on: Staphylococcus aureus ATCC 2592

CC(C)C[C@H](NC(=O)CN)C(=O)N[C@@H](CC(C)C)C(=O)N[C@@H](Cc1c[nH]c2ccccc12)C(=O)N[C@@H](Cc1cnc[nH]1)C(=O)N[C@@H](CC(C)C)C(=O)N[C@@H](CC(C)C)C(=O)N[C@@H](Cc1cnc[nH]1)C(=O)N[C@@H](Cc1cnc[nH]1)C(=O)N[C@@H](CC(C)C)C(=O)N[C@@H](CC(C)C)C(=O)N[C@@H](Cc1cnc[nH]1)C(=O)N[C@@H](CC(C)C)C(=O)N[C@@H](CC(C)C)C(=O)N[C@@H](Cc1cnc[nH]1)C(=O)N[C@@H](Cc1cnc[nH]1)C(N)=O [GLLWHLLHHLLHLLHH]
MIC [1]: ≥ 257 µM
MIC [2]: ≥ 257 µM
MIC [3]: 4.02 µM (≈ 8 µg/mL)
MIC [4]: 4.02 µM (≈ 8 µg/mL)
MIC [5]: 16.1 µM (≈ 32 µg/mL)
MIC [6]: ≥ 64.3 µM
MIC [7]: ≥ 257 µM
MIC [8]: ≥ 64.3 µM

CC[C@H](C)[C@H](NC(=O)[C@H](CCCCN)NC(=O)[C@H](CCCCN)NC(=O)[C@@H](N)CCCCN)C(=O)N[C@H](C(=O)N[C@H](C(=O)N[C@H](C(=O)N[C@H](C(=O)N[C@H](C(=O)N[C@@H](CCCCN)C(=O)N[C@@H](CCCCN)C(=O)N[C@@H](CCCCN)C(=O)O)[C@@H](C)CC)[C@@H](C)CC)[C@@H](C)CC)[C@@H](C)CC)[C@@H](C)CC [KKKIIIIIIKKK]
MIC [9]: 8 µM (≈ 11.7 µg/mL)
MIC (Staphylococcus xylosus): 0.5 µM (≈ 0.733 µg/mL)

CC(C)C[C@H](NC(=O)[C@@H](NC(=O)[C@H](CCCCN)NC(=O)[C@H](Cc1ccccc1)NC(=O)[C@@H](NC(=O)[C@@H](NC(=O)[C@H](CCCCN)NC(=O)[C@@H](N)CC(C)C)C(C)C)C(C)C)C(C)C)C(=O)N[C@@H](Cc1ccccc1)C(=O)N[C@@H](CCCCN)C(=O)O [LKVVFKVLFK]
MIC [10]: 18 µM (≈ 22 µg/mL)
MIC [11]: 9.01 µM (≈ 11 µg/mL)
MIC [12]: 13.1 µM (≈ 16 µg/mL)
MIC [13]: 13.1 µM (≈ 16 µg/mL)
MIC [14]: 10.2 µM (≈ 12.5 µg/mL)

CC[C@H](C)[C@H](NC(=O)[C@H](CCCCN)NC(=O)[C@H](CCCCN)NC(=O)[C@H](Cc1ccccc1)NC(=O)[C@H](CC(C)C)NC(=O)[C@H](CCCCN)NC(=O)[C@H](CCCCN)NC(=O)[C@H](CC(C)C)NC(=O)[C@H](CCCN=C(N)N)NC(=O)[C@H](CCCCN)NC(=O)[C@H](C)N)C(=O)N[C@@H](Cc1c[nH]c2ccccc12)C(=O)N[C@@H](CC(N)=O)C(=O)N[C@@H](Cc1c[nH]c2ccccc12)C(=O)N[C@@H](CCCCN)C(N)=O [AKRLKKLFKKIWNWK]
MIC [15]: 16 µM (≈ 31.8 µg/mL)
MIC [16]: 16 µM (≈ 31.8 µg/mL)
MIC [17]: 8 µM (≈ 15.9 µg/mL)
MIC [18]: 8 µM (≈ 15.9 µg/mL)
MIC [19]: 2 µM (≈ 3.97 µg/mL)
MIC [20]: 8 µM (≈ 15.9 µg/mL)
MIC [21]: 4 µM (≈ 7.95 µg/mL)
MIC [22]: 2 µM (≈ 3.97 µg/mL)
MIC [23]: 4 µM (≈ 7.95 µg/mL)
MIC [24]: 1 µM (≈ 1.99 µg/mL)
MIC [25]: 1 µM (≈ 1.99 µg/mL)
MIC [26]: 2 µM (≈ 3.97 µg/mL)
MIC [27]: 2.83 µM (≈ 5.62 µg/mL)
MIC [28]: 16 µM (≈ 31.8 µg/mL)

CC[C@H](C)[C@H](NC(=O)CNC(=O)[C@H](CO)NC(=O)[C@H](C)NC(=O)[C@@H](N)Cc1ccccc1)C(=O)N[C@@H](C)C(=O)NCC(=O)N[C@@H](CCSC)C(=O)N[C@@H](C)C(=O)NCC(=O)N[C@@H](CCCCN)C(=O)N[C@@H](CC(C)C)C(=O)N[C@@H](Cc1ccccc1)C(N)=O [FASGIAGMAGKLF]
MIC [29]: > 200 µM
MIC [30]: ≥ 200 µM
MIC [31]: ≥ 200 µM
MIC [32]: > 200 µM
MIC [21]: > 200 µM
MIC (Escherichia coli ML-35p): ≥ 200 µM
MIC [33]: ≥ 200 µM
MIC (Listeria ivanovii): ≥ 200 µM
MIC [34]: > 200 µM
MIC (Saccharomyces cerevisiae): ≥ 200 µM
MIC [35]: ≥ 200 µM
MIC [26]: > 200 µM
MIC [36]: ≥ 200 µM
MIC [37]: ≥ 200 µM

CC[C@H](C)[C@H](N)C(=O)N[C@@H](CC(C)C)C(=O)NCC(=O)N1CCC[C@H]1C(=O)N[C@H](C(=O)N[C@@H](CC(C)C)C(=O)NCC(=O)N[C@@H](CC(C)C)C(=O)N[C@H](C(=O)NCC(=O)N[C@@H](CC(N)=O)C(=O)N[C@@H](C)C(=O)N[C@@H](CC(C)C)C(=O)NCC(=O)NCC(=O)N[C@@H](CC(C)C)C(=O)N[C@H](C(=O)N[C@@H](CCCCN)C(=O)N[C@@H](CCCCN)C(=O)N[C@H](C(N)=O)[C@@H](C)CC)[C@@H](C)CC)C(C)C)C(C)C [ILGPVLGLVGNALGGLIKKI]
MIC [38]: 2.57 µM (≈ 5 µg/mL)
MIC [21]: 10.3 µM (≈ 20 µg/mL)
MIC [39]: 10.3 µM (≈ 20 µg/mL)
MIC [40]: 5.14 µM (≈ 10 µg/mL)
